The test system of data set [1] is phosphorylated tau (pTau). The data set is described as follows: pTau in Aβ42-treated rat hippocampal slice cultures (early tauopathy model). The format is cell-based. Particulars: 5 μM for 4 days. As to the method: (§1) FIG. 4. Enhancing lysosome efficiency with the cathepsin B modulator PADK leads to reductions of multiple types of proteinopathy-related accumulation events. […] Age-matched wild-type mice (wt) and 9-10-month mutant human APP mice, a model of early dementia, treated with or without PADK were assessed for the 4-kDa Δβ peptide, the active form of cathepsin B (act CB), and other proteins in hippocampal samples (C). Similar treatment groups used another APP mouse model at 20-22 months of age to measure clearance of APP carboxyterminal fragments APP-αCTF and APP-βCTF (D). Rat hippocampal slice cultures from the untreated control group (con) and slices treated with submicromolar Δβ42 (early tauopathy model) in the absence or presence of PADK (5 μM for 4 days) were assessed for phosphorylated tau (pTau) and other proteins (E). For a model of early α-synucleinopathy, human A53T α-synuclein transgenic mice, at 7 months old, were studied with or without PADK treatment and assessed for human α-synuclein (α-syn) in TX-100 extracts of hippocampus and for other proteins in hippocampal homogenates (F). Plotted data (±SEM) were compared to neighboring vehicle groups by unpaired t-tests: *p=0.02, **p<0.01, ***p<0.001. APPswind and APP-PS1 mice are described in Butler et al., (2011), the entire content of which is hereby incorporated herein by reference. […]

The next data set deals with Aβ peptide. The data set is described as follows: Aβ peptide in hippocampal samples of mutant human APP mice. The format is in vivo, mouse. Particulars: PADK-treated transgenic mice; correlated with augmented active CatB in brain. How it is done:
as §1

The target in the next data set is cathepsin B (Mus musculus, UniProt P10605). Nature of the data set: Cathepsin B / LAMP1 immunostaining of hippocampal tissue from PADK-treated mice. The data set is classed as in vivo. Also on record: from tissue; host or cells: mouse hippocampus (A1). The conditions noted are these: i.p., 20 mg/kg/day×9 days. An excerpt: FIG. 1. Lysosomal modulation increases the cathepsin B content of lysosomes and reduces intracellular Δβ1-42 in the APPswe/PS1ΔE9 transgenic mouse model of Alzheimer's disease. […] Without wishing to be bound by any scientific theory, the latter steps may involve processing/trafficking of active intermediate (intCB) and mature forms (matCB) from early/late endosomes to lysosomes in order to promote protein degradation (A). […] The increase in organellar cathepsin B enzyme (red) in PADK-treated APPswe/PS1ΔE9 transgenic mice (tg) was associated with a decrease in intracellular Δβ1-42 in the CA1 pyramidal neurons (C). Arrows denote co-localization in lysosomes, capturing intact Δβ1-42 before being degraded by cathepsin B. View-field widths: 12 μm. wt, vehicle-treated wild-type mice.
The lysosomal modulator Z-Phe-Ala-diazomethylketone (PADK) is administered to APPswe/PS1ΔE9 transgenic mice. Low-level PADK enhances cathepsin trafficking and maturation, thereby improving the clearance capacity of lysosomes (FIG. 1). It attenuates both PHF-tau and synaptic decline in the hippocampal slice model of protein accumulation (Bendiske and Bahr, 2003; Butler et al., 2005; Bahr, 2009). […] In PADK-treated transgenic mice, the increase in organellar cathepsin B was associated with a decrease in intracellular Aβ1-42 in pyramidal neurons (FIG. 1C).

The test system of the next data set is C57BL/6 mice. The data set is described as follows: Safety evaluation in PADK-injected C57BL/6 mice (synaptic markers, blood markers, behavior, organ histology). The data set is classed as in vivo, mouse. How it is done: FIG. 11. Safety evaluation of PADK found no evidence of toxicity. […] Alanine aminotransferase (ALT) and blood urea nitrogen (BUN) measures in plasma were also unchanged (E), indicating no effect on major organs. […] Organ sections were H+E stained and tissue integrity was evaluated by a pathologist that was blinded to the treatment groups (G).
Additional safety evaluation tests with PADK were conducted. […] Blood markers were also unchanged, indicating no effect on major organs (FIG. 11E).

In another data set the test system is bacterial. The data set is described as follows: Bacterial cytotoxicity test. The data set is classed as cell-based. Particulars: tested at up to a 1000 times the IC50 of the toxin mitomycin C.
The next data set concerns the target T1, active cathepsin B (Homo sapiens, UniProt P07858).
T1 construct: endogenous in cells
The data set is described as follows: Active cathepsin B staining in human neuronal cultures. The format is cell-based. The conditions noted are these: 10 μM for 3 days, vs control compound Z-FA.

The test system of a further data set is 11-month Fischer rats. Nature of the data set: Exploratory habituation in novel field, Fischer rats. Particulars: 27 mg/kg daily, vs vehicle-treated rats. The format is in vivo, rat. How it is done: FIG. 2. The cathepsin B modulatory compound PADK improved learning and memory in 11-month Fischer rats, a model of mild cognitive impairment (MCI) and early dementia. A classic passive avoidance task to assess memory utilized a bi-sectioned apparatus consisting of a brightly-lit compartment and a dark compartment separated by a small door. […] In this figure, the female rats were injected daily with vehicle or 27 mg/kg PADK. Following each morning's injection, the rats were placed individually into the bright compartment and, after 10 s, the door was opened through which the rats typically entered immediately (3 min total time in apparatus/rat/day). Panel A: On the seventh injection day, latency time before entering the opened doorway was measured (pre-shock bars, mean±SEM), after which the door was closed to contain the animal in the dark compartment. A mild foot shock of 0.6 mA, 2 s duration, was then administered to the contained rat via the floor grid. Following the next day's injections, rats were again placed in the bright compartment and latency times measured after the door was opened (post-shock bars). […] Brains were removed after the behavior studies in order to assess cathepsin B levels.
The animal groups were also tested across two days in the same novel field, and the number of grid crossings per 3-min period was measured to determine exploratory habituation.

Setting [2] is: C57BL/6 mice, ip daily for 9 days.

The results in this text go back to patent publication US20160136229A1, “MATERIALS FOR POSITIVE CATHEPSIN B MODULATION AND METHODS OF USE FOR TREATING MILD COGNITIVE IMPAIRMENT (MCI), EARLY DEMENTIA, A-SYNUCLEINOPATHY, TRAUMATIC BRAIN INJURY, CARDIOMYOPATHY, EYE DISEASE AND SKIN DAMAGE” (University of North Carolina at Pembroke, priority 2013, published 2016).

cathepsin B, sequence (P10605 80-333): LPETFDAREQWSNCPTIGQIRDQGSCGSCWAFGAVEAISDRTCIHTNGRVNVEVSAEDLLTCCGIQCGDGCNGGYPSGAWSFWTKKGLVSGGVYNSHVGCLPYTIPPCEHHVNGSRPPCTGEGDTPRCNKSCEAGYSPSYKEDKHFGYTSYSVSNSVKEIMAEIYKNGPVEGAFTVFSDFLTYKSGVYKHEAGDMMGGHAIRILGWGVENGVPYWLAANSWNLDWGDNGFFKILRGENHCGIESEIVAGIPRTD

For the compound `C[C@H](NC(=O)[C@H](Cc1ccccc1)NC(=O)OCc1ccccc1)C(=O)C=[N+]=[N-]` [PADK, N-carbobenzyloxy-L-phenylalanyl-L-alanyl-diazomethylketone], in data set [1], the pTau accumulation entry was “significant decrease” and the synaptic protection result was “evidence of synaptic protection”. Further, the Aβ peptide level result in the data set with Aβ peptide is reported as “reductions”. At cathepsin B, the “levels of cathepsin B in hippocampal neurons, co-localized with LAMP1-positive lysosomes” value is given as “enhanced levels of cathepsin B”. In the data set on C57BL/6 mice (setting [2]), the “Alanine aminotransferase (ALT) in plasma” value is on record as “unchanged”, the “blood urea nitrogen (BUN) in plasma” value is reported as “unchanged” and the synaptic markers result is recorded as “unchanged”. Also, in the data set with C57BL/6 mice (prior behavioral tests), the “motor coordination rotarod test” value is reported as “no adverse effects” and the “spatial memory using conditioned place preference” value was “no adverse effects”. The “organ tissue integrity (H+E stained sections, blinded pathologist)” value with C57BL/6 mice (various organs) is given as “scored as normal”. Further, the bacterial cytotoxicity result in the data set on bacterial is “did not cause bacterial cytotoxicity”. In addition, at active cathepsin B, the “levels of active cathepsin B” value is “increased levels of active cathepsin B”. Moreover, the “grid crossings per 3-min period, day 1” value with 11-month Fischer rats is listed as “No significant difference”. The “exploratory habituation, second day” value with 11-month Fischer rats (P<0.05) is recorded as “improved habituation”.
